According to patent US6046207A, “Benzopyranopyrrole and benzopyranopyridine α-1 adrenergic compounds” (priority 1997, dated 2000):
Read-outs that look alike come from different tables or passages of the source.

Assays:
[1] = biological target: T1, α-1b (hamster) adrenoreceptor (Mesocricetus auratus, UniProt P18841); assay: biochemical; conditions: read-out: Radioligand Binding Ki, 1b (Hamster)
T1 sequence (P18841 1-515): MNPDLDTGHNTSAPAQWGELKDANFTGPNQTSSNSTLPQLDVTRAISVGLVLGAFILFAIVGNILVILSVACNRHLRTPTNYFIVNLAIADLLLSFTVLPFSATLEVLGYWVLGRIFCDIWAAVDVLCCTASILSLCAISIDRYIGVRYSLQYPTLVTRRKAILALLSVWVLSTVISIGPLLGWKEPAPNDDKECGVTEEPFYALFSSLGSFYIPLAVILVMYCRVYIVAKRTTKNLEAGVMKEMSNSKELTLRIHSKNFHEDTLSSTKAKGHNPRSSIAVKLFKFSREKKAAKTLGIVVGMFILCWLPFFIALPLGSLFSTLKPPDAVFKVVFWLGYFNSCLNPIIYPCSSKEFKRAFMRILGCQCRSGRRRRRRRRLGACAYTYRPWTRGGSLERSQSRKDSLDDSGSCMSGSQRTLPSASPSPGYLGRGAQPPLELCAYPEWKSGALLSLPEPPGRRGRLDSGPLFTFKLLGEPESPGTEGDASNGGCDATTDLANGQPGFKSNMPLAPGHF
Procedure: (§1) In the following, for purposes of discussing alpha-1 adrenoreceptor subtypes, the IUPHAR convention of using lower case letters to define molecular clones and upper case letters to indicate pharmacologically defined adrenoreceptors has been followed. Moreover, the newly recommended nomenclature for alpha-1 (α1a, α1b, α1d) has been used.
(§2) Additionally, binding affinity against the pharmacologically defined α-1A adrenoreceptor (rat submaxillary gland) was measured.
(§3) The cDNA clones encoding the α-1 adrenoreceptors (α-1a, α-1b, and α-1d) were obtained from TULCO (Triangle Universities Licensing Consortium, Research Triangle Park, NC) and inserted into the eukaryotic expression vector SnaB30. In this vector, expression of the adrenoreceptor gene is under the transcriptional control of an SV40 early promoter. Positive drug selection is provided by a neomycin-resistance gene. Mouse fibroblast cells (LTK) were transfected with the α1 expression plasmids and grown in Dulbecco's modified Eagle's medium (DMEM) containing 10% fetal calf serum and 30 μM G418. Stable G418-resistant parental lines were generated, with successful expression of adrenoreceptor protein monitored using radioligand binding techniques. Stable single cell clones derived from the parental lines were screened in adrenoreceptor binding assays to identify clones having high adrenoreceptor density. […]

α-1 adrenoreceptors = conditions: cited from earlier work; for urinary flow rates and subjective symptom scores, longer term studies: BPH patients
[2] = biological target: T2, α-1B adrenoreceptor (rat spleen) (Rattus norvegicus, UniProt P15823); assay: Functional antagonism: inhibition of phenylephrine-induced contraction of rat spleen; parameters: species or system tissue; conditions: for more potent effect on spleen smooth muscle: rat spleen versus the other tissues, in words
T2 construct: contraction of rat spleen; from tissue; host or cells: rat spleen
T2 sequence (P15823 1-515): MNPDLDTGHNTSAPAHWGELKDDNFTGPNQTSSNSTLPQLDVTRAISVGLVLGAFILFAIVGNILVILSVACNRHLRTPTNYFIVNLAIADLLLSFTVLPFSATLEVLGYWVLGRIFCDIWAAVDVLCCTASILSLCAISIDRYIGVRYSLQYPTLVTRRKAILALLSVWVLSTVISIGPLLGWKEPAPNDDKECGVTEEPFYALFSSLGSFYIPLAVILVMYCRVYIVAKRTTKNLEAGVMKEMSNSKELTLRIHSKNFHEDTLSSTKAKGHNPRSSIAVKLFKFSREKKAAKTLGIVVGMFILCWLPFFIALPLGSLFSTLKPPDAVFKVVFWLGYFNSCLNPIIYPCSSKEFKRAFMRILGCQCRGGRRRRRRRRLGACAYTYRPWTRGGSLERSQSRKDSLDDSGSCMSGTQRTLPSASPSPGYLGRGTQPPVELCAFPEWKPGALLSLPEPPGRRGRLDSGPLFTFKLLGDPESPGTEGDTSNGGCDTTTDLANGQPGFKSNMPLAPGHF
Source text: (§4) Functional assays indicative of pharmacologically defined α-1 adrenoreceptors were used to further characterize compounds. […] For each of these models, agonist dose response curves were repeated against increasing concentrations of test agent to derive a Schild plot [log ([…]) against log (molarity of test agent)] to determine the pA2.

[3] = biological target: T3, α-1a (bovine) adrenoreceptor (Bos taurus, UniProt P18130); assay: Radioligand binding, [3H]-prazosin displacement, cloned α-1a expressed in LTK cells; conditions: cloned bovine α-1a, LTK cell membranes, [3H]prazosin 0.2 nM
T3 construct: expressed in transfected cells; host or cells: mouse fibroblast LTK cells, vector SnaB30, cDNA from TULCO
T3 sequence (P18130 1-466): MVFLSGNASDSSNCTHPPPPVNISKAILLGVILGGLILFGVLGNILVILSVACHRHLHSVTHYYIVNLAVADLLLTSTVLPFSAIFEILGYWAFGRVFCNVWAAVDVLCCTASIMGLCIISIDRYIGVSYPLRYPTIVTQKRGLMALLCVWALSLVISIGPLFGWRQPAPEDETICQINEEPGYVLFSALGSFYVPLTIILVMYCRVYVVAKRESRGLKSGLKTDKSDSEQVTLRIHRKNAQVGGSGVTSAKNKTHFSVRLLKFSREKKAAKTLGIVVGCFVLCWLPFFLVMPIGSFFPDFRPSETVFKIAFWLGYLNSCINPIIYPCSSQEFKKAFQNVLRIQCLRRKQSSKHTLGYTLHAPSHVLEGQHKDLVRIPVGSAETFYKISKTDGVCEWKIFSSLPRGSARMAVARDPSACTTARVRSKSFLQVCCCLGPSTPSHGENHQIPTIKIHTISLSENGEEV
Procedure: as §1, §2, §3

[4] = biological target: T4, α-1A adrenoreceptor (rat vas deferens) (Rattus norvegicus, UniProt P43140); assay: Functional antagonism: inhibition of phenylephrine-induced contraction of rat vas deferens; parameters: species or system tissue; conditions: Schild
T4 construct: contraction of rat vas deferens; from tissue; host or cells: rat vas deferens
T4 sequence (P43140 1-466): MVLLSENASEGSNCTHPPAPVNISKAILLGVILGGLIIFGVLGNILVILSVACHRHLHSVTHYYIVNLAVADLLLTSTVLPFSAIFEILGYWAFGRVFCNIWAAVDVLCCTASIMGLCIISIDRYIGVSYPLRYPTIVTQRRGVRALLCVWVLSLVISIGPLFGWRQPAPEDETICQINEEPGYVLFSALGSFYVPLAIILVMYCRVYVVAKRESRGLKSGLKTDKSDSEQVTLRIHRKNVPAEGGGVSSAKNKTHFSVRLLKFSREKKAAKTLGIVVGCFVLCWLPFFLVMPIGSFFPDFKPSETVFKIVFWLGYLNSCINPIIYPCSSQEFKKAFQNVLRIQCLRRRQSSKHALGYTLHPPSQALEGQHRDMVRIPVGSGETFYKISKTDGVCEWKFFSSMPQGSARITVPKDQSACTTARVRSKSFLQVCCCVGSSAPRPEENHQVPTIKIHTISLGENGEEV
Source text: as §4

[5] = biological target: T5, α-1A adrenoreceptor (rat submaxillary gland) (Rattus norvegicus, UniProt P43140); assay: Radioligand binding, [3H]-prazosin displacement, α-1A (rat submaxillary gland); conditions: [3H]prazosin 0.2 nM
T5 construct: Rat submaxillary glands were used for α-1A adrenoreceptors; from tissue; host or cells: rat submaxillary gland membranes
T5 sequence (P43140 1-466): T4 sequence (P43140 1-466)
Procedure: as §1, §2
Cells were detached from the roller bottles by incubating for 15 minutes at 37° C. in a Tris-EDTA solution (10 mM Tris, 100 mM NaCl, 1 mM EDTA, pH=7.4). The cell suspension from each roller bottle was decanted into tared centrifuge tubes and kept on ice. An aliquot of each cell suspension was generally taken for cell counting. […] The supernatant was decanted and the pellet weighed to determine the wet weight of cells. Cells were washed a final time in 40 vol 5 mM Tris-HCl, 5 mM EDTA, pH=7.7, and centrifuged at 40,000×G for 10 minutes. Cells were homogenized in 10 mL of 50 mM Tris-HCl, 5 mM EDTA (pH=7.4) and diluted to 40 mL/tube. Homogenates were centrifuged at 40,000×G for 10 minutes. […]
Receptor binding assays for α-1 adrenoreceptors were performed essentially as described by Greengrass and Bremner (Eur. J. Pharmacol. 55: 323-326 (1979)). […] Radioactivity was determined by standard liquid scintillation techniques.

Compound | urinary flow rates and subjective symptom scores, longer term studies (α-1 adrenoreceptors) | more potent effect on spleen smooth muscle [2] | other results
COc1ccc2c(c1)[C@@H]1CN(CCCn3c(=O)[nH]c4c(sc5ncccc54)c3=O)C[C@@H]1CO2 (racemic) [Example 77, 3-[3-((±)-cis-8-Methoxy-1,2,3,3a,4,9b-hexahydro-[1]-benzopyrano[3,4-c]pyrrol-2-yl)propyl]-pyrido[3',2':4,5]thieno[3,2-d]pyrimidine-2,4(1H,3H)-dione] |  |  | Ki [1]: 10 µM
COc1cc2nc(N3CCN(C(=O)C4COc5ccccc5O4)CC3)nc(N)c2cc1OC (centres unmarked) [Doxazosin, doxazosin] | significant improvements in urinary flow rates and subjective symptom scores | a more potent effect on spleen smooth muscle by approximately an order of magnitude | 
COc1cccc2c1[C@@H]1CN(CCCCn3c(=O)[nH]c4c(sc5nc(Cl)ccc54)c3=O)C[C@@H]1CO2 [Example 32, 3-[4-((3aR,9bR)-cis-9-Methoxy-1,2,3,3a,4,9b-hexahydro-[1]-benzopyrano[3,4-c]pyrrol-2-yl)butyl]-7-chloro-pyrido[3',2':4,5]thieno[3,2-d]pyrimidine-2,4(1H,3H)-dione] |  |  | In Vitro Characterization (pA2), Rat Spleen ([2]; rat spleen, phenylephrine, Schild): 7.24; Ki [3]: 0.093 nM; Ki ([1]; cloned hamster α-1b, LTK cell membranes, [3H]prazosin 0.2 nM): 0.00995 µM; In Vitro Characterization (pA2), Rat Vas [4]: 9.46; Ki [5]: 1.01 nM
COc1cc2nc(N3CCN(C(=O)c4ccco4)CC3)nc(N)c2cc1OC [Prazosin, prazosin] | significant improvements in urinary flow rates and subjective symptom scores | a more potent effect on spleen smooth muscle by approximately an order of magnitude | urinary incontinence during antihypertensive treatment (α-1 adrenoreceptors; women, antihypertensive treatment): urinary incontinence developed in women
COc1cc2nc(N3CCN(C(=O)C4CCCO4)CC3)nc(N)c2cc1OC (centres unmarked) [Terazosin, terazosin] | significant improvements in urinary flow rates and subjective symptom scores | a more potent effect on spleen smooth muscle by approximately an order of magnitude | 
O=C(NC1CCN(CCc2c[nH]c3ccccc23)CC1)c1ccccc1 [indoramin] | significant improvements in urinary flow rates and subjective symptom scores |  | 
